Source: patent publication US8691818B2, “Cyclic triazo and diazo sodium channel blockers” (University Of Greenwich, priority 2008, dated 2014)
pIC50: −log10 of the molar value. Where two headings read alike, the source gives them in different places.

What was measured:
[1] = system: sodium channel; experiment: [14C]guanidine flux: veratrine-evoked uptake of [14C]guanidine into rat forebrain synaptosomes (primary sodium channel assay); type: biochemical; settings: 30° for 2½ min
In short: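 Synaptosomal fraction from male Wistar rat forebrain (without cerebellum/medulla), 20-25 mg wet weight/ml. Veratrine-evoked [14C]guanidine uptake at 30° for 2½ min across a compound concentration range; IC50 from concentration-effect curves, mean±sem.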

[2] = system: L-Type Calcium Channels; experiment: L-type calcium channels: inhibition of binding of [3H]nitrendipine to rat cerebral cortex membranes; settings: for L-type Ca2+ % inhibition @ 10 μM: [3H]nitrendipine binding; for IC50: read-out: L-type Ca2+ IC50 (μM) (extrapolated from 10 μM inh'n), extrapolated assuming binding slope 1.0
[3] = Rat microsome stability; type: in vitro ADME; settings: 1 μM, rat liver microsomes
Experimental: Compounds were sent to BioFocus for measurement of their stability@1 μM concentration following incubation with rat liver microsomes for 40 minutes@37°.

[4] = biological target: T1, DiHydroFolate Reductase (DHFR) (Rattus norvegicus, UniProt Q920D2); experiment: Inhibition of binding of [3H]methotrexate to rat liver homogenate supernatant; settings: for inhibition at 125 µM: read-out: [3H]mtx binding (% inhibition @ 125 μM)
T1 construct: from tissue; host or cells: rat liver homogenate supernatant
T1 sequence (Q920D2 1-187): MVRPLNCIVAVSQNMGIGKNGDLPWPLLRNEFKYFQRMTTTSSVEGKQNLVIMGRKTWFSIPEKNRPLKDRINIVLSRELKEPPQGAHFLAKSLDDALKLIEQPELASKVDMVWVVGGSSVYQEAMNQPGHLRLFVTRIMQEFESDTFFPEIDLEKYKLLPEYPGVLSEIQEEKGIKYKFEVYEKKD
In short: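 Displacement of [3H]methotrexate binding to rat liver homogenate supernatant, prepared at 4 °C in pH 6.0 phosphate buffer with 15 mM dithiothreitol. Values are mean±sem over the number of experiments shown.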

[5] = system: 0.4 mm slices of rat hippocampus; experiment: tissue or blood; type: cell-based; settings: Rattus norvegicus; 30 μM; iodoacetate 400 μM insult; slice ATP; read-out: % protection (v 1 μM TTX) (mean ± sem) (no. of expt's)
[6] = biological target: T2, hERG (Homo sapiens, UniProt Q12809); experiment: hERG: inhibition of binding of [3H]astemizole to HEK-293 cells expressing human recombinant hERG; settings: for inhibition at 10 µM: human, probe [3H]astemizole
T2 sequence (Q12809 whole entry): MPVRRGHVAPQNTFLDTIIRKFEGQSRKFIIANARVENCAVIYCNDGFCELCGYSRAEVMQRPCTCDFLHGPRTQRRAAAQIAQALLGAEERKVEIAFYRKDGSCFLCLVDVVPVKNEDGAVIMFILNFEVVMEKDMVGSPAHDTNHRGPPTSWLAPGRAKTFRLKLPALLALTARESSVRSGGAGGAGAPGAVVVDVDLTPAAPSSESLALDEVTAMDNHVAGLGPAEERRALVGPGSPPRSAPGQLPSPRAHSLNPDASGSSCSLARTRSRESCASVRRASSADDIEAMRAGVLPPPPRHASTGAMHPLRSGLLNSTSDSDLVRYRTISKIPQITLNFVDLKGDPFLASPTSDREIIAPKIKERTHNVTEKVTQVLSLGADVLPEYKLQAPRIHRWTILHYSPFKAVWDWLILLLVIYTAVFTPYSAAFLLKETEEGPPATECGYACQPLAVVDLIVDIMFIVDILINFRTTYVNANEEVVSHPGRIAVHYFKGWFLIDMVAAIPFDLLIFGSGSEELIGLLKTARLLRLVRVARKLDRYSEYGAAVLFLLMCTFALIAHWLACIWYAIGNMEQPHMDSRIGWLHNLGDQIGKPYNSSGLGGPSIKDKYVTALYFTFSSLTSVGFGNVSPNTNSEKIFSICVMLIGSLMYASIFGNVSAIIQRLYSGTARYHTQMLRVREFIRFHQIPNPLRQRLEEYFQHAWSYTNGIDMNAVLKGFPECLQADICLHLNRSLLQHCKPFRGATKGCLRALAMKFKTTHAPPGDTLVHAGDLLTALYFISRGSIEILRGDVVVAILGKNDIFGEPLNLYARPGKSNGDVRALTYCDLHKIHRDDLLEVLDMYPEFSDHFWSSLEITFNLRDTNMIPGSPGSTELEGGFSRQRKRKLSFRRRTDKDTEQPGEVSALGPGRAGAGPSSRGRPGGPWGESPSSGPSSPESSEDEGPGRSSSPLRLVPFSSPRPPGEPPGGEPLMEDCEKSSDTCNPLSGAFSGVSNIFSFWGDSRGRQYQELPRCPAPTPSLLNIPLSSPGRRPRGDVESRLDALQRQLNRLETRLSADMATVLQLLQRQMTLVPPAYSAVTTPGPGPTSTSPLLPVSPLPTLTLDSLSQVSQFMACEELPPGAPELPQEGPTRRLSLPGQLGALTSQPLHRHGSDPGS

[7] = biological target: T2, hERG; experiment: in vitro
[8] = biological target: T2, hERG

Row | Molecule | pIC50 ([1]; listed as 92) | L-type Ca2+ % inhibition @ 10 μM [2] [%] | IC50 [2] [µM] | Microsome stability % metabolized (40 min incubation 37°) [3] [%] | [3H]mtx binding (% inhibition @ 125 μM) ([4]; 125 μM, listed as 92, 125 µM) [%] | Emax at 30 µM [5] [%] | pIC50 [6] | inhibition at 10 µM [6] [%] | pIC50 [1] | inhibition at 125 µM ([4]; 125 μM) [%] | inhibition at 10 µM [7] [%] | inhibition at 125 µM [4] [%] | pIC50 [8] | [3H]mtx binding (% inhibition @ 125 μM) ([4]; 125 μM) [%]
1 | Nc1nnc(-c2cc(C(F)(F)F)cc(C(F)(F)F)c2)c(N)n1 [CEN-92, 3,5-Diamino-6-(3,5-bistrifluoromethylphenyl)-1,2,4-triazine] | 3.84 | 3 | > 190 | 0.0 | 15 | 32 | < 3.70 | 4 |  |  |  |  |  | 
2 | N=c1nc(N)c(-c2ccccc2Oc2ccccc2)nn1CC(F)(F)F [CEN-98, 5(3)-Amino-6-(2-phenoxyphenyl)-2,3(2,5)-dihydro-3(5)-imino-2-(1,1,1-trifluoroethyl)-1,2,4-triazine] |  | −18 | > 190 | 6.0 |  | 11 | 4.34 | 18 | 5.05 | 41 |  |  |  | 
3 | Nc1nnc2c(n1)-c1cccc3cccc-2c13 [CEN-155] |  |  |  |  |  |  | 4.46 |  | 4.47 |  | 22 | -6 |  | 
4 | 6-Adamantyl-3,5-diamino-1,2,4-triazine [CEN-83] |  |  |  |  |  |  |  |  | 4.39 |  |  |  | 4.28 | −5
5 | N=c1nc(N)c(-c2cccc(Cl)c2Cl)nn1CC(F)(F)F [CEN-67, 5(3)-Amino-6-(2,3-dichlorophenyl)-2,3(2,5)-dihydro-3(5)-imino-2-(2,2,2-trifluoroethyl)-1,2,4-triazine] |  | −16 | > 190 | 0.5 |  | 3 | 4.24 | 15 | 5.37 | 11 |  |  |  | 
